Results taken from article PMC10827958, “Identification of a novel thermostable transaminase and its application in L-phosphinothricin biosynthesis” (Applied Microbiology and Biotechnology, 2024).

Test system: T1, PtTA
T1 construct: PLP enzyme
Experiment: initial rates, chiral HPLC of L-PPT, Michaelis-Menten fit
Assay type: biochemical, Zestomonas thermotolerans
Conditions: PPO 1-100 mM; co-substrate L-amino acid 100 mM (L-Glu presumably); 0.1 mM PLP; 50 mM phosphate pH 8.0; 55 °C

For `CP(=O)(O)CCC(=O)C(=O)O` [PPO, 4-(hydroxy(methyl)phosphoryl)-2-oxobutanoic acid], which Km is on record?
The Km was 35.9 mM.
